Measurements reported in PubChem BioAssay AID1963825 (Molecular Pharmacology Branch, DTP, NCI, 2024).

Assay: Anticancer human tumor 997537-175-T-J1-PDC patient-derived colon adenocarcinoma cell line growth inhibition [POLQ]
Conditions: 997537-175-T-J1-PDC complex spheroid viability, combination with POLQ inhibitors; for IC50: curve of first compound; for viability, T/C: stronger effect = lower value
Outline: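 Patient-derived tumour cells were co-cultured with HUVEC and mesenchymal stem cells as multicellular spheroids at 37 °C. They were treated with POLQ inhibitors (novobiocin, ART-558, RP6685) alone or combined with other agents. Top concentrations were at or near clinical Cmax (otherwise 10 microM; SN-38 at 1 microM), decreasing in half-log steps.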

[1] = second compound 0.0316 µM, first compound 0.0316 µM
[2] = second compound 0.0316 µM, first compound 0.1 µM
[3] = second compound 0.1 µM, first compound 0.0316 µM
[4] = second compound 0.1 µM, first compound 0.1 µM
[5] = second compound 0.316 µM, first compound 0.0316 µM
[6] = second compound 0.316 µM, first compound 0.1 µM
[7] = second compound 1 µM, first compound 0.0316 µM
[8] = second compound 1 µM, first compound 0.1 µM
[9] = second compound 3.16 µM, first compound 0.0316 µM
[10] = second compound 3.16 µM, first compound 0.1 µM
[11] = second compound 10 µM, first compound 0.0316 µM
[12] = second compound 10 µM, first compound 0.1 µM
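Note: luminescence signal used as a surrogate for viable cells; spheroids exposed to drugs for seven days before readout.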

O=c1[nH]cc(F)c(=O)[nH]1 + COC1C(OC(N)=O)C(O)C(Oc2ccc3c(O)c(NC(=O)c4ccc(O)c(CC=C(C)C)c4)c(=O)oc3c2C)OC1(C)C
IC50 (second compound 0.0316 µM): > 10 µM
IC50 (second compound 0.1 µM): > 10 µM
IC50 (second compound 0.316 µM): > 10 µM
IC50 (second compound 1 µM): > 10 µM
IC50 (second compound 3.16 µM): > 10 µM
IC50 (second compound 10 µM): > 10 µM
viability, T/C [1]: 102%
viability, T/C [2]: 102%
viability, T/C (second compound 0.0316 µM, first compound 0.316 µM): 112%
viability, T/C (second compound 0.0316 µM, first compound 1 µM): 87.8%
viability, T/C (second compound 0.0316 µM, first compound 3.16 µM): 78.7%
viability, T/C (second compound 0.0316 µM, first compound 10 µM): 76.2%
viability, T/C [3]: 86.3%
viability, T/C [4]: 104%
viability, T/C (second compound 0.1 µM, first compound 0.316 µM): 104%
viability, T/C (second compound 0.1 µM, first compound 1 µM): 114%
viability, T/C (second compound 0.1 µM, first compound 3.16 µM): 102%
viability, T/C (second compound 0.1 µM, first compound 10 µM): 90.3%
viability, T/C [5]: 95.3%
viability, T/C [6]: 103%
viability, T/C (second compound 0.316 µM, first compound 0.316 µM): 105%
viability, T/C (second compound 0.316 µM, first compound 1 µM): 87.7%
viability, T/C (second compound 0.316 µM, first compound 3.16 µM): 85.2%
viability, T/C (second compound 0.316 µM, first compound 10 µM): 97.2%
viability, T/C [7]: 96.7%
viability, T/C [8]: 108%
viability, T/C (second compound 1 µM, first compound 0.316 µM): 110%
viability, T/C (second compound 1 µM, first compound 1 µM): 89.9%
viability, T/C (second compound 1 µM, first compound 3.16 µM): 92.2%
viability, T/C (second compound 1 µM, first compound 10 µM): 87.5%
viability, T/C [9]: 108%
viability, T/C [10]: 104%
viability, T/C (second compound 3.16 µM, first compound 0.316 µM): 101%
viability, T/C (second compound 3.16 µM, first compound 1 µM): 101%
viability, T/C (second compound 3.16 µM, first compound 3.16 µM): 103%
viability, T/C (second compound 3.16 µM, first compound 10 µM): 92.6%
viability, T/C [11]: 95.8%
viability, T/C [12]: 98.2%
viability, T/C (second compound 10 µM, first compound 0.316 µM): 95.3%
viability, T/C (second compound 10 µM, first compound 1 µM): 84.2%
viability, T/C (second compound 10 µM, first compound 3.16 µM): 96.9%
viability, T/C (second compound 10 µM, first compound 10 µM): 85.3%

CC[C@@]1(O)C(=O)OCc2c1cc1n(c2=O)Cc2cc3c(CN(C)C)c(O)ccc3nc2-1 + Cc1cccc(N(C)C(=O)C2C(O)CCN2c2nc(C)cc(C(F)(F)F)c2C#N)c1
IC50 (second compound 0.0316 µM): > 0.1 µM
IC50 (second compound 0.1 µM): > 0.1 µM
IC50 (second compound 0.316 µM): > 0.1 µM
IC50 (second compound 1 µM): > 0.1 µM
IC50 (second compound 3.16 µM): > 0.1 µM
IC50 (second compound 10 µM): > 0.1 µM
viability, T/C (second compound 0.0316 µM, first compound 0.000316 µM): 108%
viability, T/C (second compound 0.0316 µM, first compound 0.001 µM): 102%
viability, T/C (second compound 0.0316 µM, first compound 0.00316 µM): 102%
viability, T/C (second compound 0.0316 µM, first compound 0.01 µM): 83.1%
viability, T/C [1]: 87.9%
viability, T/C [2]: 71.3%
viability, T/C (second compound 0.1 µM, first compound 0.000316 µM): 94.9%
viability, T/C (second compound 0.1 µM, first compound 0.001 µM): 92.4%
viability, T/C (second compound 0.1 µM, first compound 0.00316 µM): 92.6%
viability, T/C (second compound 0.1 µM, first compound 0.01 µM): 105%
viability, T/C [3]: 96.2%
viability, T/C [4]: 64.3%
viability, T/C (second compound 0.316 µM, first compound 0.000316 µM): 90%
viability, T/C (second compound 0.316 µM, first compound 0.001 µM): 100%
viability, T/C (second compound 0.316 µM, first compound 0.00316 µM): 107%
viability, T/C (second compound 0.316 µM, first compound 0.01 µM): 95.1%
viability, T/C [5]: 103%
viability, T/C [6]: 73.7%
viability, T/C (second compound 1 µM, first compound 0.000316 µM): 108%
viability, T/C (second compound 1 µM, first compound 0.001 µM): 96.7%
viability, T/C (second compound 1 µM, first compound 0.00316 µM): 97.5%
viability, T/C (second compound 1 µM, first compound 0.01 µM): 111%
viability, T/C [7]: 83.1%
viability, T/C [8]: 66.7%
viability, T/C (second compound 3.16 µM, first compound 0.000316 µM): 113%
viability, T/C (second compound 3.16 µM, first compound 0.001 µM): 101%
viability, T/C (second compound 3.16 µM, first compound 0.00316 µM): 101%
viability, T/C (second compound 3.16 µM, first compound 0.01 µM): 89.3%
viability, T/C [9]: 89.8%
viability, T/C [10]: 72%
viability, T/C (second compound 10 µM, first compound 0.000316 µM): 98%
viability, T/C (second compound 10 µM, first compound 0.001 µM): 104%
viability, T/C (second compound 10 µM, first compound 0.00316 µM): 102%
viability, T/C (second compound 10 µM, first compound 0.01 µM): 97.3%
viability, T/C [11]: 82.5%
viability, T/C [12]: 68.9%
